Test results taken from publication PMC5986872, “Schaftoside Interacts With NlCDK1 Protein: A Mechanism of Rice Resistance to Brown Planthopper, Nilaparvata lugens” (Frontiers in Plant Science, 2018).

Biological target: T1, NlCDK1 (Nilaparvata lugens, UniProt A0A1W5R2Z8)
T1 construct: CDS cloned BamHI/HindIII in pET32a
Test: intrinsic fluorescence quenching titration, double-log plot
Type: binding
Conditions: PBS; pH 7.4; 0.24 × 10^-6 mol/L protein; excitation 281 nm, emission 335 nm

T1 sequence (A0A1W5R2Z8 1-302): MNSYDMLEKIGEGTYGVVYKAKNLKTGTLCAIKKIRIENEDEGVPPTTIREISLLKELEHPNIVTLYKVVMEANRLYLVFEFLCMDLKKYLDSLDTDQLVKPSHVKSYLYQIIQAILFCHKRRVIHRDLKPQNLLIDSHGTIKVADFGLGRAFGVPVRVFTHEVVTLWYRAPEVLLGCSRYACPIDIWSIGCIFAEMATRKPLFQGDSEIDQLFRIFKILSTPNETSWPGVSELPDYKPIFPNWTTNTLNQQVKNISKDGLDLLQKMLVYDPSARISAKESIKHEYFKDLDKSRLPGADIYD

With `O=c1cc(-c2ccc(O)cc2)oc2c([C@@H]3OC[C@H](O)[C@H](O)[C@H]3O)c(O)c([C@@H]3O[C@H](CO)[C@@H](O)[C@H](O)[C@H]3O)c(O)c12` [schaftoside, 6-C-beta-D-Glucosyl-8-C-alpha-L-arabinosylapigenin] the “KA (apparent association constant)” value was 6.436 × 10^3.
